Source: patent publication US20050153870A1, “Medicinal composition for diagnosis, prevention, or therapy of multiple risk factor syndrome” (priority 2002, published 2005)
Marks after values point to notes of the source that are not given here.

What was measured:
[1] = system: Mouse, rat, beagle dog, quail, DOCA hypertension rat; experiment: Serum cholesterol decreasing effect; assay type: in vivo; details: incl. rat and quail raised with hyperfat feed
Experimental: The quails are raised by giving a feed containing 2% cholesterol for 9 months to develop hypercholesteremia, and, in the case of the rats, mineral corticoid and saline are administered to allow them to develop heart and blood vessel disease and then hypercholesteremia.

Mouse, db/db mouse = experiment: Serum insulin decreasing effect; assay type: in vivo; details: about 0.1% added to feed
db/db mice = experiment: Blood sugar decreasing effect in db/db mice (Example 7); assay type: in vivo, mouse; details: for Body weight / Blood sugar level: in feed for a week (MAC 0.05%, AS-103 0.05%, AR-610 0.1%, AF 0.4%, AC 0.05%); for Body weight: control group 44.6 ± 0.9; for Blood sugar level: control group 549.8 ± 21.8; for Blood sugar level, change vs control group / Body weight, change vs control group: in feed for a week, contents as in table
Experimental: (§1) Powered feed to which ascofuranone (AF) and ascochlorin (AC) as well as its derivatives, 4-0-methylascochlorin (MAC), 4-0-carboxymethylascochlorin (AS-6), and 4-0-nicotinoyl ascochlorin (AS-103) were added to feed at the proportions shown in the table, and the feed were given to db/db mice for a week and then analyzed for blood sugar decreasing effect (8 mice/group).

Lean = experiment: Body weight and blood sugar in Lean mice (Example 7); assay type: in vivo, mouse; details: for Body weight / Blood sugar level: in feed for a week (MAC 0.05%, AS-103 0.05%, AR-610 0.1%, AF 0.4%, AC 0.05%); for Body weight: control group 20.9 ± 0.8; for Blood sugar level: control group 211.2 ± 7.8; for Blood sugar level, change vs control group / Body weight, change vs control group: in feed for a week, contents as in table
Experimental: [The procedure below names another variant; the source lists this variant under the same test.] as §1

Zucker rats = experiment: AS-6 in feed to Zucker rats for 10 weeks (Example 5); assay type: in vivo, rat; details: 0.12% in feed
Experimental: Zucker rats were divided into two groups. One group was raised with commercially available feed to which 4-O-carboxymethylascochlorin (AS-6) was mixed up to a content of 0.12%. The other group and normal Lean-rat littermate group were raised for 10 weeks with the same commercially available feed containing no AS-6. Thereafter, body weight, white adipose cell weight, blood insulin, blood sugar, and blood lipid were measured (7 mice/group).

Row | Structure (SMILES) | serum cholesterol decreasing effect [1] | serum insulin (Mouse, db/db mouse) | Body weight (db/db mice) [g] | Blood sugar level (db/db mice) [mg/dL] | Blood sugar level, change vs control group (db/db mice) | Body weight, change vs control group (db/db mice) | Body weight (Lean) [g] | Blood sugar level (Lean) [mg/dL] | Blood sugar level, change vs control group (Lean) | Body weight, change vs control group (Lean) | other results
1 | COc1c(Cl)c(C)c(C=O)c(O)c1C/C=C(C)/C=C/[C@@]1(C)[C@H](C)CCC(=O)[C@@H]1C [4-O-methylascochlorin] | carboxymethylascochlorin, and ascofuranone exhibits an effect of decreasing serum | added in an amount of about 0.1% to feed and given to an animal, it decreases serum | 45.5 ± 1.8 | 478.0 ± 28.3 | −13.3%* | ns | 21.3 ± 0.9 | 223.1 ± 11.6 | ns | ns | 
2 | CC(C=CC1(C)C(C)CCC(=O)C1C)=CCc1c(O)c(C=O)c(C)c(Cl)c1OCC(=O)O (stereo not shown) [AS-6, 4-O-carboxymethylascochlorin] | carboxymethylascochlorin, and ascofuranone exhibits an effect of decreasing serum | added in an amount of about 0.1% to feed and given to an animal, it decreases serum | 45.3 ± 1.7 | 335.8 ± 8.5 | −38.9%** | ns | 20.2 ± 0.4 | 194.1 ± 9.5 | ns | ns | Blood sugar (full feeding), change vs Zucker control group (Zucker rats): ns; Body weight, change vs Zucker control group (Zucker rats): ns; Cholesterol, change vs Zucker control group (Zucker rats): ns; Free fatty acid, change vs Zucker control group (Zucker rats): −50.0%; Insulin, change vs Zucker control group (Zucker rats): −23.4%; Neutral fat, change vs Zucker control group (Zucker rats): −49.8%; Phospholipid, change vs Zucker control group (Zucker rats): −14.3%; White adipose cells, change vs Zucker control group (Zucker rats): ns; Free fatty acid (Zucker rats; Zucker control 1.391 ± 0.110): 0.696 ± 0.069; White adipose cells (Zucker rats; Zucker control 4.06 ± 0.09): 3.66 ± 0.11; Cholesterol (Zucker rats; Zucker control 117.4 ± 4.8): 123.6 ± 7.8; Insulin (Zucker rats; Zucker control 176.3 ± 14.7): 135.1 ± 15.6; Phospholipid (Zucker rats; Zucker control 340.8 ± 12.0): 292.1 ± 8.9; Body weight (Zucker rats; Zucker control 362 ± 13): 358 ± 15; Neutral fat (Zucker rats; Zucker control 928.6 ± 47.7): 466.3 ± 60.2; Blood sugar (full feeding) (Zucker rats; Zucker control printed 73.0 ± 14.5): 174.3 ± 19.0; insulin, free fatty acid, neutral fat and phospholipid (Zucker rats; Zucker rats): significantly reduced
